This passage reports EC50 results from patent US20120157401A1, “METHODS FOR TREATING NEUROFIBROMATOSIS” (PTC Therapeutics, Inc., priority 2009, published 2012).

Molecules are shown by their SMILES. Bounds are passed on as bounds.

One test concerns hypoxia-inducible endogenous VEGF expression. The experiment in a line: Hypoxia-inducible endogenous VEGF expression ELISA in HeLa cells, dose-response EC50 (Table 3). Type of test: cell-based, human. The conditions noted are these: Homo sapiens, HeLa, read-out: ELISA EC50 μM. The method in brief: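 HeLa cells kept 24-48 h under hypoxia (1% O2, 5% CO2, nitrogen balance) with or without compound, e.g. seven concentrations; secreted VEGF in conditioned medium quantified by ELISA against a standard curve. Parallel Cell Titer Glo viability under identical conditions excludes cytotoxicity.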
As for `COC(=O)[C@H]1CCCN1CCCOc1ccc(C2c3[nH]c4ccc(Cl)cc4c3CCN2C(=O)Oc2ccc(Cl)cc2)cc1` (stereo partly drawn) [Compound 1362], the half-maximal effective concentration (EC50) (usually the concentration needed to bring the measured effect to its halfway point) is under 0.008 µM.
Take `CC(=O)N1CCN(CCCOc2cccc(C3c4[nH]c5ccc(Cl)cc5c4CCN3C(=O)Oc3ccc(F)cc3)c2)CC1` (stereo not drawn) [Compound 1364]: the EC50 was 0.04 to 0.2 µM.

Still in this test, the particulars now being: Homo sapiens; HeLa cells, hypoxic conditions (1% O2), VEGF ELISA of conditioned media; read-out: ELISA EC50.
In the case of `O=C(Oc1ccc(Cl)cc1)N1CCc2c([nH]c3ccc(Cl)cc23)[C@H]1c1ccc(OCC[C@H](O)CO)cc1` [Compound 1330], the EC50 is over 1 µM.
On the same count and under the same terms, under `CC1(C)OC[C@H](CCOc2ccc([C@@H]3c4[nH]c5ccc(Cl)cc5c4CCN3C(=O)Oc3ccc(Cl)cc3)cc2)O1` [Compound 1331] stands over 1 µM.
Turning to `CC(CO)(CO)COc1ccc([C@H]2c3[nH]c4ccc(Cl)cc4c3CCN2C(=O)Oc2ccccc2)cc1` [Compound 1336], the EC50 fell in the range of 0.008 to 0.04 µM.
For the molecule `COc1ccc(OC(=O)N2CCc3c([nH]c4ccc(Cl)cc34)[C@@H]2c2ccc(OCC(C)(CO)CO)cc2)cc1` [Compound 1337], the EC50 is 0.008 to 0.04 µM.
The same measure, in the same setting: the figure for `O=C(Oc1ccc(F)cc1)N1CCc2c([nH]c3ccc(Br)cc23)C1c1ccc(OCC(O)CO)cc1` (stereo not drawn) [Compound 1343] is under 0.008 µM; for `O=C(Oc1ccc(Cl)cc1)N1CCc2c([nH]c3ccc(Br)cc23)C1c1ccc(OCC(O)CO)cc1` (stereo not drawn) [Compound 1344] it is under 0.008 µM; for `O=C(Oc1ccc(F)cc1)N1CCc2c([nH]c3ccc(Br)cc23)C1c1ccc(OCC[C@H](O)CO)cc1` (stereo partly drawn) [Compound 1348] it is under 0.008 µM.
Same read-out and setting: the figure for `O=C(Oc1ccc(Cl)cc1)N1CCc2c([nH]c3ccc(Br)cc23)C1c1ccc(OCC[C@H](O)CO)cc1` (stereo partly drawn) [Compound 1349] is under 0.008 µM; for `CC(CO)(CO)COc1ccc(C2c3[nH]c4ccc(Br)cc4c3CCN2C(=O)Oc2ccc(F)cc2)cc1` (stereo not drawn) [Compound 1352] it is under 0.008 µM.
Still for that read-out and setting: under `CC(CO)(CO)COc1ccc(C2c3[nH]c4ccc(Br)cc4c3CCN2C(=O)Oc2ccc(Cl)cc2)cc1` (stereo not drawn) [Compound 1353] stands under 0.008 µM; under `CCC(CO)(CO)COc1ccc(C2c3[nH]c4ccc(Br)cc4c3CCN2C(=O)Oc2ccc(F)cc2)cc1` (stereo not drawn) [Compound 1357], under 0.008 µM; under `CCC(CO)(CO)COc1ccc(C2c3[nH]c4ccc(Br)cc4c3CCN2C(=O)Oc2ccc(Cl)cc2)cc1` (stereo not drawn) [Compound 1358], under 0.008 µM.
Regarding `COc1ccc(OC(=O)N2CCc3c([nH]c4ccc(Cl)cc34)[C@@H]2c2ccc(OCC[C@@H](O)CO)cc2)cc1` [Compound 1361], the EC50 lay in the range of 0.008 to 0.04 µM.
The same measure, in the same setting: the figure for `[H]/N=c1\sccn1CCOc1ccc(C2c3[nH]c4ccc(Cl)cc4c3CCN2C(=O)Oc2ccc(F)cc2)cc1` (stereo not drawn) [Compound 1391] is under 0.008 µM; for `[H]/N=c1\sc(C)cn1CCOc1ccc(C2c3[nH]c4ccc(Cl)cc4c3CCN2C(=O)Oc2ccc(F)cc2)cc1` (stereo not drawn) [Compound 1392] it is under 0.008 µM; for `[H]/N=c1\sccn1CCOc1ccc(C2c3[nH]c4ccc(Cl)cc4c3CCN2C(=O)Oc2ccc(Cl)cc2)cc1` (stereo not drawn) [Compound 1393] it is under 0.008 µM.
Same read-out and setting: under `[H]/N=c1\sc(C)cn1CCOc1ccc(C2c3[nH]c4ccc(Cl)cc4c3CCN2C(=O)Oc2ccc(Cl)cc2)cc1` (stereo not drawn) [Compound 1394] stands under 0.008 µM; under `Nc1ccn(CCOc2ccc(C3c4[nH]c5ccc(Cl)cc5c4CCN3C(=O)Oc3ccc(F)cc3)cc2)n1` (stereo not drawn) [Compound 1413], under 0.008 µM; under `Cc1cc(N)nn1CCOc1ccc(C2c3[nH]c4ccc(Cl)cc4c3CCN2C(=O)Oc2ccc(F)cc2)cc1` (stereo not drawn) [Compound 1414], under 0.008 µM.
The same measure, in the same setting: under `[H]/N=c1\scnn1CCOc1ccc(C2c3[nH]c4ccc(Cl)cc4c3CCN2C(=O)Oc2ccc(F)cc2)cc1` (stereo not drawn) [Compound 1415] stands under 0.008 µM; under `NC(=O)c1cn(CCOc2ccc(C3c4[nH]c5ccc(Cl)cc5c4CCN3C(=O)Oc3ccc(F)cc3)cc2)nc1N` (stereo not drawn) [Compound 1416], 0.04 to 0.2 µM.
As for `Nc1ccn(CCOc2ccc(C3c4[nH]c5ccc(Cl)cc5c4CCN3C(=O)Oc3ccc(Cl)cc3)cc2)n1` (stereo not drawn) [Compound 1417], the half-maximal effective concentration (EC50) was under 0.008 µM.
